Laboratory results from ChEMBL document CHEMBL1201862, “PubChem BioAssay data set” (2004).
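These data come from cells grown in 96-well plates and exposed to compound for 48 hours at five concentrations. GI50 marks 50% less growth.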 Activity calls are given as the source filed them. Cut-off read from the data, not from the text of the source: active = GI50 up to about 1.1 µM and inactive = higher.

How the values were obtained:
Experiment in all cases: NCI anticancer screen, dose series, 48 h
[1] = test system: DU-145
[2] = test system: NCI/ADR-RES
[3] = test system: 786-0
[4] = test system: NCI-H23
[5] = test system: SK-MEL-28
[6] = test system: ACHN
[7] = test system: HT-29
[8] = test system: SK-OV-3
[9] = test system: HL-60
[10] = test system: NCI-H522
[11] = test system: SW-620
[12] = test system: SF-539
[13] = test system: SK-MEL-2
[14] = test system: A549
[15] = test system: HOP-62
[16] = test system: PC-3
[17] = test system: UO-31
[18] = test system: CAKI-1
[19] = test system: Hs-578T

SMILES	GI50 [1]	GI50 [2]	GI50 [3]	GI50 [4]	GI50 [5]	GI50 [6]	GI50 [7]	GI50 [8]	GI50 [9]	GI50 [10]	GI50 [11]	GI50 [12]	GI50 [13]	GI50 [14]	GI50 [15]	GI50 [16]	GI50 [17]	GI50 [18]	GI50 [19]
NNC(=O)Nc1cccnc1	> 100 µM (inactive)	> 100 µM (inactive)	> 100 µM (inactive)	> 100 µM (inactive)	> 100 µM (inactive)	> 100 µM (inactive)	> 100 µM (inactive)	> 100 µM (inactive)	> 100 µM (inactive)	> 100 µM (inactive)	> 100 µM (inactive)	> 100 µM (inactive)	> 100 µM (inactive)	> 100 µM (inactive)	> 100 µM (inactive)	> 100 µM (inactive)	> 100 µM (inactive)	> 100 µM (inactive)	–
CC(C)CCCC(C)[C@H]1CC[C@H]2n3c(nc4ccccc43)CCC[C@]12C (some centres undefined)	22 µM (inactive)	18.2 µM (inactive)	17.5 µM (inactive)	16.9 µM (inactive)	18.6 µM (inactive)	–	8.79 µM (inactive)	17.1 µM (inactive)	13.6 µM (inactive)	–	17.7 µM (inactive)	18.8 µM (inactive)	17.2 µM (inactive)	20.1 µM (inactive)	20.7 µM (inactive)	18.6 µM (inactive)	14.3 µM (inactive)	17.1 µM (inactive)	26.9 µM (inactive)
CCOC(=O)CC[C@H](NC(=O)c1nc[nH]c1[N+](=O)[O-])C(=O)OCC	–	–	> 100 µM (inactive)	> 100 µM (inactive)	> 100 µM (inactive)	> 100 µM (inactive)	–	> 100 µM (inactive)	> 100 µM (inactive)	> 100 µM (inactive)	–	> 100 µM (inactive)	> 100 µM (inactive)	> 100 µM (inactive)	> 100 µM (inactive)	–	> 100 µM (inactive)	–	–
CCN(CC)C(=S)SS(=O)(=O)c1ccc(Cl)cc1	27.3 µM (inactive)	35.4 µM (inactive)	29.9 µM (inactive)	38.5 µM (inactive)	17.9 µM (inactive)	33.2 µM (inactive)	17.8 µM (inactive)	64.3 µM (inactive)	–	0.0319 µM (active)	17.1 µM (inactive)	21.6 µM (inactive)	65.6 µM (inactive)	0.484 µM (active)	22.7 µM (inactive)	–	17.7 µM (inactive)	19.8 µM (inactive)	43.5 µM (inactive)
COc1cc(CC2CCc3nc(N)nc(N)c3C2)cc(OC)c1OC (centres undefined)	1.79 µM (inactive)	–	0.0536 µM (active)	0.698 µM (active)	> 36.5 µM (inactive)	0.163 µM (active)	> 34.8 µM (inactive)	27.6 µM (inactive)	0.1 µM (active)	0.505 µM (active)	0.914 µM (active)	0.966 µM (active)	> 38.1 µM (inactive)	0.0927 µM (active)	2.05 µM (inactive)	0.13 µM (active)	–	–	> 60.5 µM (inactive)
COC(=O)C1=CC(=O)OC1(OO)c1ccccc1 (centres undefined)	> 100 µM (inactive)	> 100 µM (inactive)	35.6 µM (inactive)	> 100 µM (inactive)	> 100 µM (inactive)	> 100 µM (inactive)	56.4 µM (inactive)	> 100 µM (inactive)	3.18 µM (inactive)	30.3 µM (inactive)	68.1 µM (inactive)	> 100 µM (inactive)	> 100 µM (inactive)	> 100 µM (inactive)	–	> 100 µM (inactive)	> 100 µM (inactive)	38.8 µM (inactive)	–
O=C(NNC(=S)Nc1ccccc1)c1cc(-c2ccccc2)nc2ccccc12	17 µM (inactive)	17.4 µM (inactive)	15.8 µM (inactive)	16.3 µM (inactive)	16.4 µM (inactive)	27.5 µM (inactive)	28.6 µM (inactive)	26.8 µM (inactive)	–	18.1 µM (inactive)	18.7 µM (inactive)	21.4 µM (inactive)	11.1 µM (inactive)	16.7 µM (inactive)	15.7 µM (inactive)	18.6 µM (inactive)	15.2 µM (inactive)	30.1 µM (inactive)	25.1 µM (inactive)
CCc1n[nH]c(=O)n1N1C(=O)C2CC=CCC2C1=O (centres undefined)	–	> 100 µM (inactive)	> 100 µM (inactive)	> 100 µM (inactive)	–	> 100 µM (inactive)	> 100 µM (inactive)	> 100 µM (inactive)	–	> 100 µM (inactive)	> 100 µM (inactive)	> 100 µM (inactive)	> 100 µM (inactive)	> 100 µM (inactive)	> 100 µM (inactive)	> 100 µM (inactive)	> 100 µM (inactive)	> 100 µM (inactive)	> 100 µM (inactive)
CSc1ccc(C=C2N=C(c3ccccc3)N(c3cc(C(=O)c4ccccc4)ccc3N3C(=O)/C(=C/c4ccc(SC)cc4)N=C3c3ccccc3)C2=O)cc1	49.9 µM (inactive)	46 µM (inactive)	69.3 µM (inactive)	–	> 100 µM (inactive)	52.4 µM (inactive)	81.3 µM (inactive)	> 100 µM (inactive)	8.04 µM (inactive)	–	> 100 µM (inactive)	22.6 µM (inactive)	36.1 µM (inactive)	43.5 µM (inactive)	79.8 µM (inactive)	40 µM (inactive)	48.4 µM (inactive)	56.1 µM (inactive)	52.7 µM (inactive)
CN1C(=O)c2c(c3c4ccccc4n(C4OC(CO)C(O)C(O)C4O)c3c3[nH]c4ccccc4c23)C1=O (centres undefined)	2.74 µM (inactive)	12.5 µM (inactive)	2.67 µM (inactive)	2.59 µM (inactive)	2.14 µM (inactive)	2.14 µM (inactive)	3.13 µM (inactive)	2.92 µM (inactive)	–	0.321 µM (active)	1.71 µM (inactive)	1.36 µM (inactive)	2.48 µM (inactive)	11.8 µM (inactive)	2.93 µM (inactive)	1.92 µM (inactive)	2.57 µM (inactive)	1.9 µM (inactive)	4.45 µM (inactive)
CCOC(=O)c1cn(-c2ccc(Cl)cc2)c(=O)n2c1nc1ccccc12	> 100 µM (inactive)	> 100 µM (inactive)	> 100 µM (inactive)	> 100 µM (inactive)	> 100 µM (inactive)	> 100 µM (inactive)	88.3 µM (inactive)	–	–	–	> 100 µM (inactive)	> 100 µM (inactive)	> 100 µM (inactive)	> 100 µM (inactive)	> 100 µM (inactive)	> 100 µM (inactive)	> 100 µM (inactive)	> 100 µM (inactive)	–
CC#CC(O)(C(=O)OC1CCC2CCC1N2C)C1CCCC1 (centres undefined)	> 100 µM (inactive)	> 10 µM (inactive)	> 100 µM (inactive)	> 100 µM (inactive)	> 100 µM (inactive)	> 10 µM (inactive)	> 100 µM (inactive)	> 100 µM (inactive)	–	> 100 µM (inactive)	> 100 µM (inactive)	> 100 µM (inactive)	–	> 100 µM (inactive)	> 100 µM (inactive)	> 100 µM (inactive)	> 100 µM (inactive)	> 100 µM (inactive)	–
CC1=C(C)C(=O)OC(C(C)(O)C2(O)CCC3(O)C4CC(Cl)C5(O)C(O)C=CC(=O)C5(C)C4CCC32C)C1 (centres undefined)	> 100 µM (inactive)	–	32.3 µM (inactive)	64.7 µM (inactive)	49 µM (inactive)	42.1 µM (inactive)	15.9 µM (inactive)	41.6 µM (inactive)	4.15 µM (inactive)	10.8 µM (inactive)	21.3 µM (inactive)	28.2 µM (inactive)	> 100 µM (inactive)	69.3 µM (inactive)	> 100 µM (inactive)	48.1 µM (inactive)	15.6 µM (inactive)	12.2 µM (inactive)	66.4 µM (inactive)
O=C(/C(=N/Nc1cn[nH]c(=O)c1Cl)c1ccccc1)c1ccccc1	20.5 µM (inactive)	17.5 µM (inactive)	16 µM (inactive)	22.4 µM (inactive)	45.1 µM (inactive)	57.9 µM (inactive)	20 µM (inactive)	39.5 µM (inactive)	16.8 µM (inactive)	17.1 µM (inactive)	31.3 µM (inactive)	22.6 µM (inactive)	46 µM (inactive)	18.3 µM (inactive)	44.8 µM (inactive)	27.5 µM (inactive)	22.6 µM (inactive)	19.7 µM (inactive)	–
COc1ccc(-c2nc(N)c(C#N)c3c2CCS(=O)(=O)c2ccc(C)cc2-3)cc1OC	29 µM (inactive)	43.7 µM (inactive)	29 µM (inactive)	31.5 µM (inactive)	55.2 µM (inactive)	48.4 µM (inactive)	30.1 µM (inactive)	–	–	8.87 µM (inactive)	34.9 µM (inactive)	–	16.2 µM (inactive)	26.4 µM (inactive)	33.2 µM (inactive)	11.9 µM (inactive)	30.8 µM (inactive)	27 µM (inactive)	24.6 µM (inactive)
O=C1c2ccccc2C(=O)C1C(c1ccc([N+](=O)[O-])cc1)C1C(=O)c2ccccc2C1=O	–	–	> 100 µM (inactive)	34.9 µM (inactive)	29 µM (inactive)	> 100 µM (inactive)	> 100 µM (inactive)	> 100 µM (inactive)	58.3 µM (inactive)	63.4 µM (inactive)	17.9 µM (inactive)	73.8 µM (inactive)	91 µM (inactive)	> 100 µM (inactive)	34.8 µM (inactive)	–	44.7 µM (inactive)	28.8 µM (inactive)	–
